Source: the supplement of paper PMC7840683
Structures can show the parent of a compound that is named as a salt.

System: HepaRG
Test: LDH release cytotoxicity, % of total lysis control; higher = more cytotoxic
Conditions: 48 h
Method in brief: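 Duplicate wells of single-lot HepaRG cells, grown on collagen I-coated 96-well plates, received eight-point half-log series of test chemicals with 100 µM as the top concentration. Exposure lasted 48 h in serum-free induction medium with 0.5% DMSO, while total lysis wells received 0.1% Triton X. Resorufin fluorescence (CytoTox-ONE, Tecan Safire) was used to quantify LDH leaked into 50 µL of spent medium. Values for percent cytotoxicity were normalized to on-plate vehicle and total lysis controls and averaged across the duplicates.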

CCNc1nc(NC(C)C)nc(SC)n1 [Ametryn]
Conditions	LDH release cytotoxicity [%]
0.03162 µM	-0.705
0.1 µM	-1.179
0.3162278 µM	-1.07
1 µM	-1.09
3.16228 µM	-1.44
10 µM	-0.756
31.6228 µM	-0.965
100 µM	-0.133

CCC(=O)C(CC(C)N(C)C)(c1ccccc1)c1ccccc1 (configuration not stated) [Methadone hydrochloride]
Conditions	LDH release cytotoxicity [%]
0.0229265 µM	-1.18
0.0725 µM	-0.8
0.2292651 µM	-1.01
0.725 µM	-1.59
2.29265 µM	-0.919
7.25 µM	-0.638
22.926513 µM	0.191
72.5 µM	7.87

COC(=O)c1c(Cl)c(Cl)c(C(=O)OC)c(Cl)c1Cl [Chlorthal-dimethyl]
Conditions	LDH release cytotoxicity [%]
0.03162 µM	-0.87
0.1 µM	-0.884
0.3162278 µM	-1.01
1 µM	-0.618
3.16228 µM	-0.53
10 µM	0.0929
31.6228 µM	-0.208
100 µM	1.01

COc1ccc2sc(C(=O)Nc3nnn[nH]3)c(OC(C)C)c2c1 [CI-959]
Conditions	LDH release cytotoxicity [%]
0.03162 µM	-0.617
0.1 µM	-2.08
0.3162278 µM	-1.65
1 µM	-1.45
3.16228 µM	-2.51
10 µM	-2.33
31.6228 µM	3.57
100 µM	9.3

CCSC(=O)N(CC(C)C)CC(C)C [Butylate]
Conditions	LDH release cytotoxicity [%]
0.03162 µM	-1.39
0.1 µM	-1.51
0.3162278 µM	-0.761
1 µM	-1.26
3.16228 µM	-0.761
10 µM	-0.00901
31.6228 µM	-0.0439
100 µM	-0.00901

CCOP(=S)(OCC)Oc1ccc2c(C)c(Cl)c(=O)oc2c1 [Coumaphos]
Conditions	LDH release cytotoxicity [%]
0.031623 µM	-0.785
0.1 µM	-3.39
0.316228 µM	-2.36
1 µM	-2.83
3.16228 µM	-3.28
10 µM	-3.57
31.6228 µM	-2.86
100 µM	5.7

CCCCSP(=O)(SCCCC)SCCCC [Tribufos]
Conditions	LDH release cytotoxicity [%]
0.03162 µM	-1.39
0.1 µM	-0.774
0.3162278 µM	-1.31
1 µM	-1.25
3.16228 µM	-0.815
10 µM	-0.0795
31.6228 µM	-0.648
100 µM	0.564

CC(C=CC1=C(C)CCCC1(C)C)=CC=CC(C)=CCO [Retinol]
Conditions	LDH release cytotoxicity [%]
0.03305 µM	-0.586
0.1045 µM	-1.81
0.330458 µM	-1.85
1.045 µM	-1.97
3.30458 µM	-2.34
10.45 µM	-1.67
33.0458 µM	-1.8
104.5 µM	-1.69

CCCCCCCC(=O)OC [Methyl octanoate]
Conditions	LDH release cytotoxicity [%]
0.03162 µM	-0.862
0.1 µM	-0.372
0.3162278 µM	-1.13
1 µM	-1.52
3.16228 µM	-0.786
10 µM	-1.1
31.6228 µM	-1.29
100 µM	0.214

Cc1cc(Cl)ccc1OCC(=O)O [MCPA]
Conditions	LDH release cytotoxicity [%]
0.03162 µM	-0.121
0.1 µM	-0.914
0.3162278 µM	-0.511
1 µM	-0.689
3.16228 µM	-0.578
10 µM	-0.154
31.6228 µM	0.865
100 µM	1.22

[As]#[In] [Indium arsenide]
Conditions	LDH release cytotoxicity [%]
0.03162 µM	0.449
0.1 µM	-0.971
0.3162278 µM	0.268
1 µM	-0.269
3.16228 µM	0.376
10 µM	0.749
31.6228 µM	0.141
100 µM	1.11

CCOP(=O)(OCC)Oc1nc(Cl)c(Cl)cc1Cl [Chlorpyrifos oxon]
Conditions	LDH release cytotoxicity [%]
0.03162 µM	-1.8
0.1 µM	-1.33
0.3162278 µM	-1.43
1 µM	-1.55
3.16228 µM	-0.451
10 µM	0.221
31.6228 µM	0.828
100 µM	2.9

COc1ccc2c(c1)c(CC(=O)O)c(C)n2C(=O)c1ccc(Cl)cc1 [1-(p-Chlorobenzoyl)-5-methoxy-2-methyl-Indole-3-acetic acid]
Conditions	LDH release cytotoxicity [%]
0.03162 µM	-0.418
0.1 µM	-0.408
0.3162278 µM	-0.399
1 µM	0.493
3.16228 µM	0.818
10 µM	0.284
31.6228 µM	0.637
100 µM	1.2

COc1ccc([N+](=O)[O-])cc1N [5-Nitro-o-anisidine]
Conditions	LDH release cytotoxicity [%]
0.03162 µM	0.0404
0.1 µM	-1.94
0.3162278 µM	-1.36
1 µM	-1.28
3.16228 µM	-1.4
10 µM	-1.25
31.6228 µM	0.0123
100 µM	0.941

CC1CC2C3CCC4=CC(=O)C=CC4(C)C3(F)C(O)CC2(C)C1(O)C(=O)COP(=O)(O)O (configuration not stated) [Dexamethasone sodium phosphate]
Conditions	LDH release cytotoxicity [%]
0.03162 µM	-1.41
0.1 µM	-1.19
0.3162278 µM	-0.881
1 µM	-1.653
3.16228 µM	-1.03
10 µM	-1.06
31.6228 µM	-0.535
100 µM	-0.295

CC(C)NC(=O)N1CC(=O)N(c2cc(Cl)cc(Cl)c2)C1=O [Iprodione]
Conditions	LDH release cytotoxicity [%]
0.03162 µM	-0.45
0.1 µM	-1.34
0.3162278 µM	-0.949
1 µM	-1.27
3.16228 µM	-1.29
10 µM	-0.662
31.6228 µM	1.78
100 µM	4.73

CCOc1nc(F)cc2nc(S(=O)(=O)Nc3c(Cl)cccc3Cl)nn12 [Diclosulam]
Conditions	LDH release cytotoxicity [%]
0.01581 µM	-5.4
0.05 µM	-5.8
0.1581139 µM	-6.31
0.5 µM	-6.08
1.5811388 µM	-6.09
5 µM	-5.21
15.8114 µM	-4.75
50 µM	-3.63

CC(C)(O)c1cnn2c(-c3ccc(F)c(-c4c(F)cccc4C#N)c3)cnc2n1
Conditions	LDH release cytotoxicity [%]
0.03162 µM	-0.882
0.1 µM	-1.19
0.3162278 µM	-1.7
1 µM	-1.5
3.16228 µM	-1.51
10 µM	-1.39
31.6228 µM	1.16
100 µM	8.979

C#CCN1C(=O)COc2cc(F)c(N3C(=O)C4=C(CCCC4)C3=O)cc21 [Flumioxazin]
Conditions	LDH release cytotoxicity [%]
0.03162 µM	-0.355
0.1 µM	-0.895
0.3162278 µM	-0.721
1 µM	-1.33
3.16228 µM	-0.964
10 µM	-1.1
31.6228 µM	-0.837
100 µM	0.763
